# Tested on: K12877-001-R-J1-PDC complex spheroid viability
# Experiment: Anticancer human tumor K12877-001-R-J1-PDC patient-derived lung adenocarcinoma cell line growth inhibition [RAS]
# Details: for IC50: curve of first compound; for viability, T/C: stronger effect = lower value
# Outline: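 Agents were tested in combination matrices in half-log decrements from a top concentration at or near clinical Cmax (10 microM if undetermined). Targets were multi-cell spheroids of tumour lines plus HUVEC and MSC stromal cells.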
# [1] = second compound 0.0316 µM, first compound 0.0316 µM
# [2] = second compound 0.0316 µM, first compound 0.1 µM
# [3] = second compound 0.0316 µM, first compound 0.316 µM
# [4] = second compound 0.0316 µM, first compound 1 µM
# [5] = second compound 0.0316 µM, first compound 3.16 µM
# [6] = second compound 0.0316 µM, first compound 10 µM
# [7] = second compound 0.1 µM, first compound 0.0316 µM
# [8] = second compound 0.1 µM, first compound 0.1 µM
# [9] = second compound 0.1 µM, first compound 0.316 µM
# [10] = second compound 0.1 µM, first compound 1 µM
# [11] = second compound 0.1 µM, first compound 3.16 µM
# [12] = second compound 0.1 µM, first compound 10 µM
# [13] = second compound 0.316 µM, first compound 0.0316 µM
# [14] = second compound 0.316 µM, first compound 0.1 µM
# [15] = second compound 0.316 µM, first compound 0.316 µM
# [16] = second compound 0.316 µM, first compound 1 µM
# [17] = second compound 0.316 µM, first compound 3.16 µM
# [18] = second compound 0.316 µM, first compound 10 µM
# [19] = second compound 1 µM, first compound 0.0316 µM
# [20] = second compound 1 µM, first compound 0.1 µM
# [21] = second compound 1 µM, first compound 0.316 µM
# [22] = second compound 1 µM, first compound 1 µM
# [23] = second compound 1 µM, first compound 3.16 µM
# [24] = second compound 1 µM, first compound 10 µM
# [25] = second compound 3.16 µM, first compound 0.0316 µM
# [26] = second compound 3.16 µM, first compound 0.1 µM
# [27] = second compound 3.16 µM, first compound 0.316 µM
# [28] = second compound 3.16 µM, first compound 1 µM
# [29] = second compound 3.16 µM, first compound 3.16 µM
# [30] = second compound 3.16 µM, first compound 10 µM
# [31] = second compound 10 µM, first compound 0.0316 µM
# [32] = second compound 10 µM, first compound 0.1 µM
# [33] = second compound 10 µM, first compound 0.316 µM
# [34] = second compound 10 µM, first compound 1 µM
# [35] = second compound 10 µM, first compound 3.16 µM
# [36] = second compound 10 µM, first compound 10 µM
# 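Note: spheroids exposed to agents for one week before readout.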
# 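Throughout, for viability, T/C: tumour cells co-cultured with HUVEC and mesenchymal stem cells in spheroids.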
smiles,measurement,setting,value
Cc1nc(N2CCC3(CC2)COC(C)C3N)c(CO)nc1Sc1ccnc(N)c1Cl (centres undefined) + C#Cc1c(F)ccc2cc(O)cc(-c3ncc4c(N5CC6CCC(C5)N6)nc(OCC56CCCN5CC(F)C6)nc4c3F)c12,IC50,second compound 0.0316 µM,> 10 µM
same,IC50,second compound 0.1 µM,> 10 µM
same,IC50,second compound 0.316 µM,> 10 µM
same,IC50,second compound 1 µM,> 10 µM
same,IC50,second compound 3.16 µM,> 10 µM
same,IC50,second compound 10 µM,> 10 µM
same,"viability, T/C",[1],94.3%
same,"viability, T/C",[2],97%
same,"viability, T/C",[3],99%
same,"viability, T/C",[4],95.1%
same,"viability, T/C",[5],103%
same,"viability, T/C",[6],77.5%
same,"viability, T/C",[7],109%
same,"viability, T/C",[8],110%
same,"viability, T/C",[9],92%
same,"viability, T/C",[10],87.7%
same,"viability, T/C",[11],93.5%
same,"viability, T/C",[12],84.1%
same,"viability, T/C",[13],107%
same,"viability, T/C",[14],98.8%
same,"viability, T/C",[15],91.2%
same,"viability, T/C",[16],92.9%
same,"viability, T/C",[17],78.5%
same,"viability, T/C",[18],65.7%
same,"viability, T/C",[19],101%
same,"viability, T/C",[20],92.5%
same,"viability, T/C",[21],93.1%
same,"viability, T/C",[22],95.7%
same,"viability, T/C",[23],82.9%
same,"viability, T/C",[24],69.5%
same,"viability, T/C",[25],100%
same,"viability, T/C",[26],94%
same,"viability, T/C",[27],92.4%
same,"viability, T/C",[28],79.7%
same,"viability, T/C",[29],79.7%
same,"viability, T/C",[30],69.7%
same,"viability, T/C",[31],93.6%
same,"viability, T/C",[32],86.1%
same,"viability, T/C",[33],83.9%
same,"viability, T/C",[34],83.4%
same,"viability, T/C",[35],86.9%
same,"viability, T/C",[36],84.8%
NC1c2ccccc2OC12CCN(c1cnc3c(N4CCCc5ncccc54)n[nH]c3n1)CC2 (centres undefined) + C#Cc1c(F)ccc2cc(O)cc(-c3ncc4c(N5CC6CCC(C5)N6)nc(OCC56CCCN5CC(F)C6)nc4c3F)c12,IC50,second compound 0.0316 µM,> 10 µM
same,IC50,second compound 0.1 µM,> 10 µM
same,IC50,second compound 0.316 µM,> 10 µM
same,IC50,second compound 1 µM,> 10 µM
same,IC50,second compound 3.16 µM,> 10 µM
same,IC50,second compound 10 µM,> 10 µM
same,"viability, T/C",[1],104%
same,"viability, T/C",[2],92.3%
same,"viability, T/C",[3],86.8%
same,"viability, T/C",[4],93.1%
same,"viability, T/C",[5],85.3%
same,"viability, T/C",[6],50.4%
same,"viability, T/C",[7],106%
same,"viability, T/C",[8],91.1%
same,"viability, T/C",[9],90%
same,"viability, T/C",[10],78.9%
same,"viability, T/C",[11],84.2%
same,"viability, T/C",[12],58.9%
same,"viability, T/C",[13],98.4%
same,"viability, T/C",[14],93.2%
same,"viability, T/C",[15],88.5%
same,"viability, T/C",[16],86.8%
same,"viability, T/C",[17],74.2%
same,"viability, T/C",[18],55.8%
same,"viability, T/C",[19],105%
same,"viability, T/C",[20],97.1%
same,"viability, T/C",[21],86.8%
same,"viability, T/C",[22],87.6%
same,"viability, T/C",[23],71.2%
same,"viability, T/C",[24],54.8%
same,"viability, T/C",[25],99.7%
same,"viability, T/C",[26],84.8%
same,"viability, T/C",[27],104%
same,"viability, T/C",[28],87.8%
same,"viability, T/C",[29],72.7%
same,"viability, T/C",[30],55.1%
same,"viability, T/C",[31],90.4%
same,"viability, T/C",[32],97.6%
same,"viability, T/C",[33],102%
same,"viability, T/C",[34],91.8%
same,"viability, T/C",[35],64.9%
same,"viability, T/C",[36],63.8%

# Reference: PubChem BioAssay AID2060894 (Molecular Pharmacology Branch, DTP, NCI, 2025)
